According to patent US5140009A (Tap Pharmaceuticals, Inc., priority 1990, dated 1992):
Numbered stars: 1 amine (or outer) side, 2 acyl side, 3 side chain; on linkers, the order of the positions; unused ones are H or OH. Square brackets hold non-standard residues; d marks the D form. Side chains are listed from the residue outwards. Peptide text beside a SMILES is read from it. * marks the point of attachment. Propanoyl(3-(4-F-phenyl)) = O=C(CCc1ccc(F)cc1)*; d1Nal = N[C@H](Cc1cccc2ccccc12)C(=O)O; Lys(iPr) = CC(C)NCCCC[C@H](N)C(=O)O; NMeY = CN[C@@H](Cc1ccc(O)cc1)C(=O)O; Pyrazinecarbonyl = O=C(c1cnccn1)*; Piperazinyl(4-Me) = CN1CCN(*)CC1; Nicotinoyl = O=C(c1cccnc1)*; CO = O=C([*:1])[*:2]

Assays:
[1] = molecular target: T1, LHRH receptors (Rattus norvegicus, UniProt P30969); test: Receptor Binding (radioligand receptor binding assay); conditions: rat pituitary membranes, 2 hours at 4° C.; for Ki: read-out: Receptor Binding pkI (converted)
T1 construct: Pituitary membranes containing LHRH receptors are prepared in batches from quick-frozen rat pituitaries; tissue Hilltop Labs; host or cells: rat pituitary membranes
T1 sequence (P30969 1-327): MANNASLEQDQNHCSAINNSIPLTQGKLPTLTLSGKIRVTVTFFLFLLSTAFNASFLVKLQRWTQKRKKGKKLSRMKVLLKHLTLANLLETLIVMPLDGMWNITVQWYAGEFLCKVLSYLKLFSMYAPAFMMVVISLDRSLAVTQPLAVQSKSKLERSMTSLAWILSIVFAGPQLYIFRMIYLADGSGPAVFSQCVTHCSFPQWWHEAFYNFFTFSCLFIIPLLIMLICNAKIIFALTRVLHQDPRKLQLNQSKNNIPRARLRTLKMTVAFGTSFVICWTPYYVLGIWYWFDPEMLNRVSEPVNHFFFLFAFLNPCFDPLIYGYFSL

[2] = system: male castrate rats; test: In vivo LH Inhibiton; parameters: species or system rat; conditions: table 4, 30 ug/kg subcutaneously by bolus injection, AUC of log (LHt /LHi)
Protocol: (c) In vivo LH Inhibiton. The compound to be tested is administered at 30 ug/kg subcutaneously by bolus injection to male castrate rats and blood samples are collected periodically over 24 hours. The AUC (area under the curve) of the LH suppression data as a function of time is calculated using the formula log (LHt /LHi) wherein LHt is the LH concentration in the blood at time t and LHi is the initial baseline LH concentration in the blood. The AUC values are negative numbers.

[3] = system: castrated rats; test: In vivo LH Release; parameters: species or system rat; conditions: table 3, dose producing half-maximal LH release
Protocol: (d) In vivo LH Release. The compound to be tested is administered to castrated rats intraveneously and the serum LH concentration at various time points is measured by RIA. The time integrated LH response is calculated and the dose producing half-maximal LH release (ED50) is reported.

[4] = molecular target: T2, Rat pituitaries (Rattus norvegicus, UniProt P30969); test: In vitro LH release suppression by LHRH antagonists in presence of superagonist [D-Leu^6 -Pro^9 NHEt]LHRH (pA2); format: cell-based; conditions: negative log of concentration producing half-maximum suppression of LH
T2 sequence (P30969 1-327): T1 sequence (P30969 1-327)

Compound	Ki ([1]; table 4, radioligand 50 pM) [nM]	AUC (24 hr. after 30 ug/kg) [2]	also measured
CC(C)C[C@H](NC(=O)[C@@H](CCCCNC(=O)N1CCN(C)CC1)NC(=O)[C@H](Cc1ccc(O)cc1)N(C)C(=O)[C@H](CO)NC(=O)[C@@H](Cc1cccc2ccccc12)NC(=O)CCc1ccc(F)cc1)C(=O)N[C@@H](CCCNC(=N)N)C(=O)N1CCC[C@H]1C(=O)N[C@H](C)C(N)=O [Compound 211, N-(3-(4-Fluorophenyl)propionyl)-D-1-Nal-Ser-NMeTyr-D-Lys(N-epsilon-N'-N"-methylpiperazinecarbonyl)-Leu-Arg-Pro-D-AlaNH2] ({Propanoyl(3-(4-F-phenyl))}-[d1Nal]S[NMeY][dK]([CO-Piperazinyl(4-Me)])LRP[dA]-NH2)	0.0151	-449	–
CC(C)C[C@H](NC(=O)CNC(=O)[C@H](Cc1ccc(O)cc1)NC(=O)[C@H](CO)NC(=O)[C@H](Cc1c[nH]c2ccccc12)NC(=O)[C@H](Cc1c[nH]cn1)NC(=O)[C@@H]1CCC(=O)N1)C(=O)N[C@@H](CCCNC(=N)N)C(=O)N1CCC[C@H]1C(=O)NCC(N)=O [LHRH, Luteinizing hormone releasing hormone]	–	–	ED50 ug/kg i.v. [3]: 859 µg/kg
CC(C)C[C@H](NC(=O)[C@@H](CCCCNC(=O)c1cccnc1)NC(=O)[C@H](Cc1ccc(O)cc1)N(C)C(=O)[C@H](CO)NC(=O)[C@@H](Cc1c[nH]c2ccccc12)NC(=O)CCc1ccc(F)cc1)C(=O)N[C@@H](CCCCNC(C)C)C(=O)N1CCC[C@H]1C(=O)N[C@H](C)C(N)=O [Compound 195, (3-10)[N-(3-(4-Fluorophenyl)propionyl)-D-Trp^3 -NMeTyr^5 -D-Lys^6 (N-epsilon-nicotinyl)-Lys^8 (N-epsilon-isopropyl)-D-Ala^10]LHRH] ({Propanoyl(3-(4-F-phenyl))}-[dW]S[NMeY][dK](Nicotinoyl)L[Lys(iPr)]P[dA]-NH2)	0.0234	-158	–
(2-9)[N-(N-alpha-Morpholinocarbonyl)-D,L-4-F-Phe^2 -D-Trp^6 -Pro^9 NHEt]LHRH [Compound 113]	–	–	Receptor Binding pkI ([1]; table 3, radioiodinated [D-Leu^6 -des Gly^10 ]-LHRH ethyl amide 50 pM): 9.51; LH Inhibition pA2 ([4]; table 3): 8.63
CC(C)C[C@H](NC(=O)[C@@H](CCCCNC(=O)c1cnccn1)NC(=O)[C@H](Cc1ccc(O)cc1)N(C)C(=O)[C@H](CO)NC(=O)[C@@H](Cc1cccc2ccccc12)NC(=O)CCc1ccc(F)cc1)C(=O)N[C@@H](CCCCNC(C)C)C(=O)N1CCC[C@H]1C(=O)N[C@H](C)C(N)=O [Compound 207, (3-10)[N-(3-(4-Fluorophenyl)propionyl)-D-1-Nal^3 -NMeTyr^5 -D-Lys^6 (N-epsilon-2-pyrazinyecarbonyl)-Lys^8 (N-epsilon-isopropyl)-D-Ala^10]LHRH] ({Propanoyl(3-(4-F-phenyl))}-[d1Nal]S[NMeY][dK](Pyrazinecarbonyl)L[Lys(iPr)]P[dA]-NH2)	0.00288	-412	–
CCNC(=O)[C@@H]1CCCN1C(=O)[C@H](CCCCNC(C)C)NC(=O)[C@H](CC(C)C)NC(=O)[C@@H](CCCCNC(=O)c1cccnc1)NC(=O)[C@H](Cc1ccc(O)cc1)N(C)C(=O)[C@H](CO)NC(=O)[C@@H](Cc1cccc2ccccc12)NC(=O)CCc1ccc(F)cc1 [Compound 209, N-(3-(4-Fluorophenyl)propionyl)-D-1-Nal-Ser-NMeTyr-D-Lys(N-epsilon-nicotinyl)-Leu-Lys(N-epsilon-isopropyl)-Pro-NHEt] ({Propanoyl(3-(4-F-phenyl))}-[d1Nal]S[NMeY][dK](Nicotinoyl)L[Lys(iPr)]P-NHEt)	0.0024	-343	–
CC(C)C[C@H](NC(=O)[C@@H](CCCCNC(=O)c1cccnc1)NC(=O)[C@H](Cc1ccc(O)cc1)N(C)C(=O)[C@H](CO)NC(=O)[C@@H](Cc1cccc2ccccc12)NC(=O)CCc1ccc(F)cc1)C(=O)N[C@@H](CCCCNC(C)C)C(=O)N1CCC[C@H]1C(=O)N[C@H](C)C(N)=O [Compound 197, (3-10)[N-(3-(4-Fluorophenyl)propionyl)-D-1-Nal^3 -NMeTyr^5 -D-Lys^6 (N-epsilon-nicotinyl)-Lys^8 (N-epsilon-isopropyl)-D-Ala^10]LHRH] ({Propanoyl(3-(4-F-phenyl))}-[d1Nal]S[NMeY][dK](Nicotinoyl)L[Lys(iPr)]P[dA]-NH2)	0.0112	-688	–
(3-10)[N-(3-(4-Fluorophenyl)propionyl)-D-Trp^3 -NMeTyr^5 -D-Lys^6 -D-Ala^10 ]LHRH [Compound 182]	–	–	Receptor Binding pkI ([1]; table 4, radioligand 50 pM): 10.55; LH Inhibition pA2 ([4]; table 4): 9.32
